Laboratory results reported in the NIST ThermoML archive (doi:10.1016/j.jct.2013.05.019).
Numbers after ± are expanded uncertainties.

Test: xn = mol fraction of the nth substance listed
Conditions: 101 kPa, Liquid; for viscosity: Falling or rolling sphere viscometry; for mass density: Vibrating tube method; for electrical conductivity: Alternating current cell with electrodes

CC(=O)O.CCCCN [butylammonium acetate] + O
Conditions | electrical conductivity [S/m] | mass density [kg/m3] | viscosity [mPa·s]
293.15 K, x1 = 0.031 | – | 1009.89 ± 0.11 | 2.659 ± 0.058
293.15 K, x1 = 0.06 | – | 1015.91 ± 0.11 | 4.018 ± 0.088
293.15 K, x1 = 0.0992 | – | 1014.35 ± 0.11 | 6.792 ± 0.15
293.15 K, x1 = 0.2007 | – | 1003.86 ± 0.11 | 16.91 ± 0.38
293.15 K, x1 = 0.2999 | – | 993.39 ± 0.12 | 35.04 ± 0.76
293.15 K, x1 = 0.4013 | – | 984.8 ± 0.12 | 53.35 ± 1.1
293.15 K, x1 = 0.5004 | – | 977.72 ± 0.13 | 101.3 ± 3.1
293.15 K, x1 = 0.5666 | – | 974.54 ± 0.14 | 141.64 ± 5.5
293.15 K, x1 = 0.7973 | – | 964.56 ± 0.18 | 390.26 ± 27
293.15 K, x1 = 0.8972 | – | 962.15 ± 0.21 | 579.35 ± 48
293.15 K, x1 = 1 | – | 959.61 ± 0.23 | 771.69 ± 71
298.15 K, x1 = 0.0006 | 0.168 ± 0.039 | – | –
298.15 K, x1 = 0.0012 | 0.316 ± 0.032 | – | –
298.15 K, x1 = 0.0018 | 0.434 ± 0.034 | – | –
298.15 K, x1 = 0.0026 | 0.572 ± 0.036 | – | –
298.15 K, x1 = 0.0032 | 0.67 ± 0.029 | – | –
298.15 K, x1 = 0.0046 | 0.842 ± 0.03 | – | –
298.15 K, x1 = 0.0078 | 1.12 ± 0.026 | – | –
298.15 K, x1 = 0.0121 | 1.34 ± 0.027 | – | –
298.15 K, x1 = 0.0181 | 1.45 ± 0.029 | – | –
298.15 K, x1 = 0.031 | – | 1006.58 ± 0.12 | 2.328 ± 0.05
298.15 K, x1 = 0.0329 | 1.54 ± 0.031 | – | –
298.15 K, x1 = 0.06 | – | 1013.18 ± 0.11 | 3.345 ± 0.073
298.15 K, x1 = 0.0682 | 1.58 ± 0.032 | – | –
298.15 K, x1 = 0.0992 | – | 1011.15 ± 0.11 | 5.626 ± 0.12
298.15 K, x1 = 0.0999 | 1.54 ± 0.031 | – | –
298.15 K, x1 = 0.2001 | 1.16 ± 0.023 | – | –
298.15 K, x1 = 0.2007 | – | 1000.82 ± 0.11 | 13.83 ± 0.3
298.15 K, x1 = 0.2999 | – | 990.34 ± 0.12 | 28.14 ± 0.61
298.15 K, x1 = 0.3479 | 0.513 ± 0.01 | – | –
298.15 K, x1 = 0.4013 | – | 981.74 ± 0.12 | 46.77 ± 1
298.15 K, x1 = 0.5004 | – | 974.67 ± 0.13 | 77.42 ± 1.9
298.15 K, x1 = 0.5427 | 0.164 ± 0.003 | – | –
298.15 K, x1 = 0.5666 | – | 971.45 ± 0.14 | 102.65 ± 3.1
298.15 K, x1 = 0.7973 | – | 961.46 ± 0.18 | 283.43 ± 17
298.15 K, x1 = 0.8065 | 0.074 ± 0.002 | – | –
298.15 K, x1 = 0.8972 | – | 958.98 ± 0.21 | 415.18 ± 30
298.15 K, x1 = 1 | 0.021 ± 0.001 | 956.44 ± 0.23 | 546.35 ± 44
303.15 K, x1 = 0.031 | – | 1003.24 ± 0.12 | 2.196 ± 0.047
303.15 K, x1 = 0.06 | – | 1009.87 ± 0.11 | 2.864 ± 0.062
303.15 K, x1 = 0.0992 | – | 1007.91 ± 0.11 | 4.714 ± 0.1
303.15 K, x1 = 0.2007 | – | 997.74 ± 0.11 | 11.79 ± 0.25
303.15 K, x1 = 0.2999 | – | 987.26 ± 0.12 | 22.91 ± 0.5
303.15 K, x1 = 0.4013 | – | 978.64 ± 0.13 | 40.9 ± 0.88
303.15 K, x1 = 0.5004 | – | 971.64 ± 0.14 | 60.97 ± 1.3
303.15 K, x1 = 0.5666 | – | 968.34 ± 0.14 | 82.19 ± 2.1
303.15 K, x1 = 0.7973 | – | 958.36 ± 0.18 | 211.13 ± 10
303.15 K, x1 = 0.8972 | – | 955.83 ± 0.21 | 304.3 ± 19
303.15 K, x1 = 1 | – | 953.33 ± 0.23 | 397.17 ± 28
308.15 K, x1 = 0.031 | – | 999.87 ± 0.12 | 1.864 ± 0.04
308.15 K, x1 = 0.06 | – | 1006.52 ± 0.11 | 2.439 ± 0.053
308.15 K, x1 = 0.0992 | – | 1004.62 ± 0.11 | 3.985 ± 0.086
308.15 K, x1 = 0.2007 | – | 994.62 ± 0.11 | 9.893 ± 0.21
308.15 K, x1 = 0.2999 | – | 984.17 ± 0.12 | 18.78 ± 0.41
308.15 K, x1 = 0.4013 | – | 975.55 ± 0.13 | 35.59 ± 0.77
308.15 K, x1 = 0.5004 | – | 968.58 ± 0.14 | 48.93 ± 1.1
308.15 K, x1 = 0.5666 | – | 965.22 ± 0.14 | 65.48 ± 1.5
308.15 K, x1 = 0.7973 | – | 955.23 ± 0.18 | 160.94 ± 6.7
308.15 K, x1 = 0.8972 | – | 952.69 ± 0.21 | 227.72 ± 12
308.15 K, x1 = 1 | – | 950.15 ± 0.23 | 294.59 ± 18
313.15 K, x1 = 0.031 | – | 996.47 ± 0.12 | 1.665 ± 0.036
313.15 K, x1 = 0.06 | – | 1003.14 ± 0.11 | 2.132 ± 0.046
313.15 K, x1 = 0.0992 | – | 1001.29 ± 0.11 | 3.489 ± 0.075
313.15 K, x1 = 0.2007 | – | 991.43 ± 0.11 | 8.389 ± 0.18
313.15 K, x1 = 0.2999 | – | 981.07 ± 0.12 | 15.67 ± 0.34
313.15 K, x1 = 0.4013 | – | 972.44 ± 0.13 | 31 ± 0.67
313.15 K, x1 = 0.5004 | – | 965.54 ± 0.14 | 42.95 ± 0.92
313.15 K, x1 = 0.5666 | – | 962.11 ± 0.14 | 56.12 ± 1.2
313.15 K, x1 = 0.7973 | – | 952.09 ± 0.18 | 133.31 ± 4.9
313.15 K, x1 = 0.8972 | – | 949.53 ± 0.21 | 180.6 ± 8.1
313.15 K, x1 = 1 | – | 946.98 ± 0.23 | 222.24 ± 11
